Measurements as given in patent publication US8906909B2 (Curis, Inc., priority 2009, dated 2014).

How the values were obtained:
[1] = test system: ARH77 cells; assay: Cell proliferation assay Method B, ARH77; type: cell-based; conditions: Homo sapiens, ARH-77, Multiple Myeloma, 72 hours, read-out: antiproliferative activity IC50, ARH77
Protocol: (§1) Cancer cell lines were plated at 5,000 to 10,000 per well in 96-well flat bottomed plates with various concentration of compounds. The cells were incubated with compounds for 72 hours in the presence of 0.5% of fetal bovine serum. Growth inhibition was accessed by adenosine triphosphate (ATP) content assay using Promega CellTiter-Glo kit. Promega CellTiter-Glo kit is an ATP monitoring system based on firefly luciferase. Briefly, 16 μl of mammalian cell lysis and substrate solution was added to 84 μl of culture medium per well to lyse the cells and stabilize the ATP. The mixture was shaken and incubated for 30 minutes and subsequently the luminescence was measured.

[2] = test system: H1993 cells; assay: Cell proliferation assay Method A (ATPlite), H1993; type: cell-based; conditions: Homo sapiens, NCI-H1993, 72 hours, read-out: antiproliferative activity IC50, H1993
How it was run: (§2)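 Cells seeded at 5,000–10,000 per well with graded compound concentrations and cultured 72 h in 0.5% fetal bovine serum. Growth inhibition read as cellular ATP content by firefly luciferase luminescence (ATPlite).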

[3] = test system: MV-4-11 cells; assay: Cell proliferation assay Method B, MV-4-11; type: cell-based; conditions: Homo sapiens, MV4-11, AML, 72 hours, read-out: antiproliferative activity IC50, MV-4-11
Protocol: as §1

[4] = test system: MDA-MB-468 cells; assay: Cell proliferation assay Method B, MDA-MB-468; type: cell-based; conditions: Homo sapiens, Breast, Method B, 72 hours, read-out: antiproliferative activity IC50, MDA-MB-468
How it was run: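 Plate 5,000 to 10,000 cells per well together with compound dilutions. Incubate 72 hours in medium containing 0.5% fetal bovine serum. Add lysis/luciferase substrate reagent, shake, wait 30 minutes, then read luminescence.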

[5] = test system: T47D cells; assay: Cell proliferation assay Method B, T47D; type: cell-based; conditions: Homo sapiens, Breast, 72 hours, read-out: antiproliferative activity IC50, T47D
Protocol: as §1

[6] = target: T1, PI3Kβ (p110β/p85α) (Homo sapiens, UniProt P42338); assay: PI3Kβ TR-FRET (HTRF) assay; type: biochemical; conditions: 10 μM ATP
T1 construct: N-terminal histidine-tagged recombinant full-length human p110β; His tag (N); made in house; host or cells: Baculovirus-infected Sf21 insect cells
Protocol: Activity of PI3Kβ was measured using time-resolved fluorescence resonance energy transfer (TR-FRET) assay utilizing homogenous time resolved fluorescence (HTRF) technology. PI3Kβ, a complex of N-terminal histidine-tagged recombinant full-length human p110β and untagged recombinant full length human p85α were coexpressed in a Baculovirus infected Sf21 cell expression system. (GenBank Accession No. for p110β, NM—006219; for p85α, XM—043865) The proteins are purified by one-step affinity chromatography using glutathione-agarose. A competition assay was performed to measure the amount of PIP3 generated from PIP2 in the presence of purified recombinant PI3 Kbeta (p110β/p85α). PI3Kβ was incubated with 10 μM PIP2 substrate in the reaction buffer (20 mM HEPES, pH 7.5, 10 mM NaCl, 4 mM MgCl2, 2 mM DTT, 10 μM ATP and 1% DMSO) for 30 minutes at 30° C. The reaction product was then mixed with a PIP3 detector protein, europium-labeled antibody, biotin-labeled PIP3 probe and allophycocyanin-labeled Streptavidin. A sensor complex is formed to generate a stable TR-FRET signal in the reaction mixture. This signal intensity decrease as biotin-labeled probe binding to the PIP3 detector is displaced by PIP3 produced by enzymatic activity and the amount of unbound biotin-labeled PIP3 probe in the mixture increases. TR-FRET signal was determined using microplate reader with background subtraction.

[7] = test system: HDACs (HeLa cell nuclear extracts); assay: HDAC enzymatic activity, Biomol Color de Lys system; type: biochemical
How it was run: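 HeLa nuclear extract as HDAC source with Color de Lys substrate in 50 mM Tris/Cl pH 8.0, 137 mM NaCl, 2.7 mM KCl, 1 mM MgCl2. Serially diluted compounds reacted 1 h at 25 °C, then developer added; fluorescence (Ex 350–380/Em 440–460) fitted sigmoidally for IC50.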

[8] = target: T2, PI3Kγ (p120γ) (Homo sapiens, UniProt P48736); assay: PI3Kγ TR-FRET (HTRF) assay; type: biochemical; conditions: 10 μM ATP
T2 construct: His tag (N); made in house; host or cells: Baculovirus-infected Sf9 insect cells
Description: The proteins are purified by one-step affinity chromatography using glutathione-agarose.

[9] = test system: MDA-MB-361 cells; assay: Cell proliferation assay Method B, MDA-MB-361; type: cell-based; conditions: Homo sapiens, Breast, 72 hours, read-out: antiproliferative activity IC50, MDA-MB-361
Protocol: as §1

[10] = test system: HCT-118 cells; assay: Cell proliferation assay Method A (ATPlite), HCT-118; type: cell-based; conditions: 72 hours, read-out: antiproliferative activity IC50, HCT-118
How it was run: as §2

[11] = test system: MiaPaca1 cells; assay: Cell proliferation assay Method B, MiaPaca1; type: cell-based; conditions: Pancreas, 72 hours, read-out: antiproliferative activity IC50, MiaPaca1
Protocol: as §1

[12] = test system: H460 cells; assay: Cell proliferation assay Method B, H460; type: cell-based; conditions: Homo sapiens, NCI-H460, NSCLC, 72 hours, read-out: antiproliferative activity IC50, H460
Protocol: as §1

[13] = test system: HCT116 cells; assay: Cell proliferation assay Method B, HCT116; type: cell-based; conditions: Homo sapiens, HCT-116, Colon, 72 hours, read-out: antiproliferative activity IC50, HCT116
Protocol: as §1

[14] = test system: PC-3 cells; assay: Cell proliferation assay Method B, PC-3; type: cell-based; conditions: Homo sapiens, Prostate, 72 hours, read-out: antiproliferative activity IC50, PC-3
Protocol: as §1

[15] = test system: OPM-2 cells; assay: Cell proliferation assay Method B, OPM-2; type: cell-based; conditions: Homo sapiens, Multiple Myeloma, 72 hours, read-out: antiproliferative activity IC50, OPM-2
Protocol: as §1

[16] = test system: OVCAR-5 cells; assay: Cell proliferation assay Method B, OVCAR-5; type: cell-based; conditions: Homo sapiens, Ovarian, 72 hours, read-out: antiproliferative activity IC50, OVCAR-5
Protocol: as §1

[17] = test system: glioblastoma xenografts; conditions: oral dosage; Folkes et al. 2008; cited from earlier work
[18] = test system: SW403 cells; assay: Cell proliferation assay Method B, SW403; type: cell-based; conditions: Homo sapiens, SW-403, Colon, 72 hours, read-out: antiproliferative activity IC50, SW403
Protocol: as §1

[19] = test system: Calu6 cells; assay: Cell proliferation assay Method B, Calu6; type: cell-based; conditions: Homo sapiens, Calu-6, NSCLC, 72 hours, read-out: antiproliferative activity IC50, Calu6
Protocol: as §1

[20] = test system: SW620 cells; assay: Cell proliferation assay Method B, SW620; type: cell-based; conditions: Homo sapiens, SW-620, Colon, 72 hours, read-out: antiproliferative activity IC50, SW620
Protocol: as §1

[21] = test system: SW1990 cells; assay: Cell proliferation assay Method B, SW1990; type: cell-based; conditions: Homo sapiens, Pancreas, 72 hours, read-out: antiproliferative activity IC50, SW1990
Protocol: as §1

T2 sequence (P48736 whole entry): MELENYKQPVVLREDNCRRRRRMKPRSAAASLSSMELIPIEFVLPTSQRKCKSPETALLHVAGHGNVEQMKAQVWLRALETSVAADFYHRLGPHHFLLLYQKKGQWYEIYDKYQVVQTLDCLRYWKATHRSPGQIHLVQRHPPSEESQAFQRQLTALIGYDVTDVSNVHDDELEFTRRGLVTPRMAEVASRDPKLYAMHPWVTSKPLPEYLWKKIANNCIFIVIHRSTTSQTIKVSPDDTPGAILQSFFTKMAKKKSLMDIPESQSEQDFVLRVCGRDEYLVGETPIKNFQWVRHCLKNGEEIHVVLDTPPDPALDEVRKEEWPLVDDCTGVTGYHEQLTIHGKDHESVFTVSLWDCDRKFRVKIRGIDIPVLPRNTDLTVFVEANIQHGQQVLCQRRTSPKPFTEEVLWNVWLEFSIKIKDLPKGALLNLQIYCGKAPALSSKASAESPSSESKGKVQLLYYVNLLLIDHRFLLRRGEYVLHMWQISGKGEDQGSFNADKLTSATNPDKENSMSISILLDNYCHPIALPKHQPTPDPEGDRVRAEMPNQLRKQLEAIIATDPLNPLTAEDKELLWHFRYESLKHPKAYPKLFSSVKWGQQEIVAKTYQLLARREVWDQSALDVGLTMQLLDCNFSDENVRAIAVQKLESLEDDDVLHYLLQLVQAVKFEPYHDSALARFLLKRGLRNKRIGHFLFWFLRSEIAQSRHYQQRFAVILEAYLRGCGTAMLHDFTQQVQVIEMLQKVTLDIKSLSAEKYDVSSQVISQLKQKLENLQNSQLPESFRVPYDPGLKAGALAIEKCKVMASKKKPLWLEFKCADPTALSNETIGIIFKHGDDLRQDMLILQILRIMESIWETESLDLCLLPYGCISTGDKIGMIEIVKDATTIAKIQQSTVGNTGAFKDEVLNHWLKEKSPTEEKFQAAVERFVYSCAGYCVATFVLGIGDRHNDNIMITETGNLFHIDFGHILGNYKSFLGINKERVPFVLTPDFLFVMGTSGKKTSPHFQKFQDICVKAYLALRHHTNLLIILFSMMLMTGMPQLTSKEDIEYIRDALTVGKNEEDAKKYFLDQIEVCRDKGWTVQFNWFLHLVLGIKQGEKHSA
T1 sequence (P42338 whole entry): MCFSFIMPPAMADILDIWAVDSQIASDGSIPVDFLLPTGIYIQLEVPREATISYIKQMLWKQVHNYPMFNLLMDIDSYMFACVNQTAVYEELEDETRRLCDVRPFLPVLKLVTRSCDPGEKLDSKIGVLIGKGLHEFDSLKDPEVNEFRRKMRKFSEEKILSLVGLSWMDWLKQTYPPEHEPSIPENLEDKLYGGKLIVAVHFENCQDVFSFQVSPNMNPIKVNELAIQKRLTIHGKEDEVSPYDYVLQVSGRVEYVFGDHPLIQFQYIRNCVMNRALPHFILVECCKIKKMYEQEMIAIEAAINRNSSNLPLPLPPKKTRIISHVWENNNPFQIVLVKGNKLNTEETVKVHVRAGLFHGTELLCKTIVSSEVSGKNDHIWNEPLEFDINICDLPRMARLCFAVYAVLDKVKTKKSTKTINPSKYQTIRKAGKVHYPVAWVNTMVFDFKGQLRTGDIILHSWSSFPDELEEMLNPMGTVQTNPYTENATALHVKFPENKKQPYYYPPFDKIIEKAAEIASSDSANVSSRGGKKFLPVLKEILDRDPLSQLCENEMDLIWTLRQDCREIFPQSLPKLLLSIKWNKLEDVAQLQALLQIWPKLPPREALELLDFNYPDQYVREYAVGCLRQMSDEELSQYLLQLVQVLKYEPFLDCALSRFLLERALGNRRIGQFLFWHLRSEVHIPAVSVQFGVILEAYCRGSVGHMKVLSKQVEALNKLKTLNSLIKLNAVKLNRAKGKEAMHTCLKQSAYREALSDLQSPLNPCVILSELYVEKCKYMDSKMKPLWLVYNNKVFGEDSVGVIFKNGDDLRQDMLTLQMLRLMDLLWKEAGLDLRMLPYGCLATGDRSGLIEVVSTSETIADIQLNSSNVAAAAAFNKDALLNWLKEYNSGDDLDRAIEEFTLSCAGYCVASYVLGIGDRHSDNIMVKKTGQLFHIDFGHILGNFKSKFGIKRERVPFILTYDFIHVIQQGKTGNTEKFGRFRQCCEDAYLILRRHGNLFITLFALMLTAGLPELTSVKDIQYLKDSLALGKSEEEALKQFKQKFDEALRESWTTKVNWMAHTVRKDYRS
T1 sequence (P27986 whole entry partner): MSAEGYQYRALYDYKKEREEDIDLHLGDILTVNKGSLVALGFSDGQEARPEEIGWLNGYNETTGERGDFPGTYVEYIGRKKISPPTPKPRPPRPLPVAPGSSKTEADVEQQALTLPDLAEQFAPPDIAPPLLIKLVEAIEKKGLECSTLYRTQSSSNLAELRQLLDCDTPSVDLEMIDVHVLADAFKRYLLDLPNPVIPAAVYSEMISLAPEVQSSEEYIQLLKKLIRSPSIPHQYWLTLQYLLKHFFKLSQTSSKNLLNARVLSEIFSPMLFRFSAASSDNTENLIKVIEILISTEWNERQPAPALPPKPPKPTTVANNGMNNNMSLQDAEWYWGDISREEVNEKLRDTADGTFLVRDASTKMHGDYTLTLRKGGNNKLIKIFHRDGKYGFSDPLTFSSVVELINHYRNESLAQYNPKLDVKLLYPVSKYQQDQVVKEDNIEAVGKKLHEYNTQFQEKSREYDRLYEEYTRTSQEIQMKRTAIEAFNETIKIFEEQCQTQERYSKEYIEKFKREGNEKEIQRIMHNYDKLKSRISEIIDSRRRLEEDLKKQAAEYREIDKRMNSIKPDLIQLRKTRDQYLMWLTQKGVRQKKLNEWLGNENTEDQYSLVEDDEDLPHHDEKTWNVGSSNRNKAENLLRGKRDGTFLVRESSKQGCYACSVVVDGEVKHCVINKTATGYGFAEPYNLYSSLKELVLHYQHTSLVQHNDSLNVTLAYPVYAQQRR

With `CN(Cc1cc2nc(-c3ccc(N)cc3)nc(N3CCOCC3)c2s1)c1ncc(C(=O)NO)cn1` [Compound 150, 2-(((2-(4-aminophenyl)-4-morpholinothieno[3,2-d]pyrimidin-6-yl)methyl)(methyl)amino)-N-hydroxypyrimidine-5-carboxamide] the IC50 [1] was < 10 nM, the IC50 [2] was < 100 nM and the IC50 [3] was < 10 nM. For the same molecule, the IC50 [4] was 10 to 100 nM, the IC50 [5] was < 10 nM and the IC50 [6] was < 100 nM. The IC50 [7] was < 100 nM, the IC50 [8] was 100 to 1000 nM and the IC50 [9] was < 10 nM. The IC50 [10] was < 100 nM.
For `CS(=O)(=O)N1CCN(Cc2cc3nc(-c4cccc5[nH]ncc45)nc(N4CCOCC4)c3s2)CC1` [GDC-0941, reference compound], the IC50 [1] was > 10000 nM, the IC50 [11] was > 10000 nM and the IC50 [12] was > 10000 nM. For the same molecule, the IC50 [13] was 1000 to 10000 nM, the IC50 [3] was 1000 to 10000 nM and the IC50 [14] was 1000 to 10000 nM. The IC50 [15] was 100 to 1000 nM, the IC50 [16] was 100 to 1000 nM and the “tumor suppression in glioblastoma xenografts” value [17] was “tumor suppression”. For the same molecule, the IC50 [5] was > 10000 nM, the IC50 [18] was > 10000 nM and the IC50 [19] was > 10000 nM. The IC50 [20] was > 10000 nM, the IC50 [9] was 100 to 1000 nM and the IC50 [21] was > 10000 nM.
